One test addresses T1, PRMT5/MEP50 complex (Homo sapiens, UniProt O14744).
T1 construct: purchased Reaction Biology Corporation
Briefly: PRMT5:MEP50 HotSpot Assay (full-length histone H2A substrate, plus and minus MTA). Format: biochemical. The conditions noted are these: IC50 + 2 μM MTA, in the presence of 2 μM MTA. How it is done: The PRMT5 inhibitory activity of compounds of the present invention was determined using either a PRMT5:MEP50 FlashPlate Assay (Reaction Biology Corporation) or a PRMT5:MEP50 HotSpot Assay (Reaction Biology Corporation).
The assay uses recombinant full-length hi stone H2A as the PRMT5 substrate. […] The reaction was stopped and transferred to filter paper for detection. The amount of tritiated H2A in each sample was determined using a scintillation counter.

Test [1] has as its system HCT116 homozygous MTAP knockout cells. Briefly: Proliferation assay (CellTiter-Glo, 10 days) in HCT116 homozygous MTAP knockout cells. Format: cell-based. Particulars: CellTiter-Glo after 10 days of treatment, read-out: Proliferation IC50 (nM) HCT116 MTAP_KO. The protocol: HCT116 cells were genetically engineered to knock out the function of both MTAP alleles using a CRISPR/Cas9 system and an sgRNA targeting the MTAP gene. Following Cas9/MTAP sgRNA transduction, clones were screened to confirm that each allele of the MTAP gene had been inactivated (i.e., homozygous MTAP knock out) creating an MTAP-deficient cell.
Control samples were analyzed in parallel.
Briefly, on Day 0, 250 HCT116 parental or HCT116 homozygous MTAP knockout cell were seeded in 96 well plates in McCoy's 5A supplemented with […] fetal bovine serum and pen/strep and the cells were incubated overnight at 37° C. plus 5% CO2.
The following day, cells were treated with DMSO vehicle control or a dose response of PRMT5 inhibitors and incubated at 37 C plus 5% CO2 for five days. On Day 6, the cells were trypsinized and split 1:10 into new 96-well plates with fresh medium containing the same concentration of PRMT5 inhibitor and incubated for an additional 5 days at 37° C. plus 5% CO^2.
On Day 11, the viability of the cells was measured using a CTG assay kit (CellTiter-Glo; Promega cat.no G7573) in accordance with the manufacturer's instructions. The IC50 values for each compound after 10 days of treatment were calculated using GraphPad PRISM software.
(In general: In ATP-based viability assays light output follows the ATP content of the culture.)

Like-named read-outs stand apart in the source and are kept apart here.

T1 sequence (O14744 2-637 limits assumed): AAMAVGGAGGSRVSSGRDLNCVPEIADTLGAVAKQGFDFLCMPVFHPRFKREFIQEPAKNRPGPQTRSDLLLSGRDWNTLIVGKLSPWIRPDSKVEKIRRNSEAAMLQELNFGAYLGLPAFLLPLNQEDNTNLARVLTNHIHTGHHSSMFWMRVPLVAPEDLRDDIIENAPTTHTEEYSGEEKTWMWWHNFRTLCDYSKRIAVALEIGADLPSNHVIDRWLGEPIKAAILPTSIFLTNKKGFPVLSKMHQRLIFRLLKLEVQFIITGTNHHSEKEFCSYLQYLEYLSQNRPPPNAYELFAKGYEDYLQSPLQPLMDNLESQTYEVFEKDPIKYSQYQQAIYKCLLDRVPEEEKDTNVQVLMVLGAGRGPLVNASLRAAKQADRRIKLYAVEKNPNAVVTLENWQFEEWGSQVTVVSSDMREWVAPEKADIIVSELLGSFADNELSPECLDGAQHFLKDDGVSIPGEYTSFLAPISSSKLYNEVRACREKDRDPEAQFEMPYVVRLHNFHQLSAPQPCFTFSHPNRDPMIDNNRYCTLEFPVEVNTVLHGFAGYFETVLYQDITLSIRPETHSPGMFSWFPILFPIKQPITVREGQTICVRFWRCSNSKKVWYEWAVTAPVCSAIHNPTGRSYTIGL
T1 sequence (Q9BQA1 2-342 partner limits assumed): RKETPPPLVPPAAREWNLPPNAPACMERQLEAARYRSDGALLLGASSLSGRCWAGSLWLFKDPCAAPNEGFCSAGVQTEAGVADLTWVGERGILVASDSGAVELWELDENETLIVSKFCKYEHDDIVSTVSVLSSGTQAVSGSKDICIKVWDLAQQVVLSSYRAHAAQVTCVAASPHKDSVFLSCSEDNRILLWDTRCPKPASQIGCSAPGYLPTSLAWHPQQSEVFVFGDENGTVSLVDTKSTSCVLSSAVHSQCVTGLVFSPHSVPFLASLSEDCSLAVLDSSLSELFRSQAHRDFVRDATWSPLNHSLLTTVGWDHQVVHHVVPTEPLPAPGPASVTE

With `Cc1cnc2c(C#N)c(-c3c(-c4ccc5c(=O)[nH]nc(CN)c5c4)cnn3C)c(F)c(C)c2c1` (atropisomer, axis not shown; (P)) [Example 16-93, (P)-7-(4-(4-(aminomethyl)-1-oxo-1,2-dihydrophthalazin-6-yl)-1-methyl-1H-pyrazol-5-yl)-6-fluoro-3,5-dimethylquinoline-8-carbonitrile], the IC50 on PRMT5/MEP50 complex worked out at 821 nM; in test [1], 3290 nM.
For `Cc1cc(-c2cnn(C)c2-c2c(F)cc3ncc(Cl)cc3c2C#N)cc2c(CN)n[nH]c(=O)c12` (single isomer, unassigned) [Example 16-49, (P)-6-[4-[4-(aminomethyl)-8-methyl-1-oxo-2H-phthalazin-6-yl]-2-methyl-pyrazol-3-yl]-3-chloro-7-fluoro-quinoline-5-carbonitrile] the same measures were 166 nM and 80 nM.
`Cc1cc(-c2cnn(C)c2-c2c(F)cc3ncc(Cl)cc3c2C#N)cc2c(CN)n[nH]c(=O)c12` (single isomer, unassigned) [Example 16-50, (M)-6-[4-[4-(aminomethyl)-8-methyl-1-oxo-2H-phthalazin-6-yl]-2-methyl-pyrazol-3-yl]-3-chloro-7-fluoro-quinoline-5-carbonitrile]: the figures for the IC50 (at PRMT5/MEP50 complex; in test [1]) were 36.4 nM and 9 nM, respectively.
For `CCOc1cc(-c2cnn(C)c2-c2c(F)c(C)cc(OC3CC3)c2C#N)cc2c(CN)n[nH]c(=O)c12` (single isomer, unassigned) [Example 16-76, (M)-2-[4-[4-(aminomethyl)-8-ethoxy-1-oxo-2H-phthalazin-6-yl]-2-methyl-pyrazol-3-yl]-6-(cyclopropoxy)-3-fluoro-4-methyl-benzonitrile] the same measures were 111 nM and 41 nM.
For the compound `Cn1ncc(-c2ccc3c(=O)[nH]nc(CN)c3c2)c1-c1c(C#N)cc2ncccc2c1F` (single isomer, unassigned) [Example 16-91, (P)-6-[4-[4-(aminomethyl)-1-oxo-2H-phthalazin-6-yl]-2-methyl-pyrazol-3-yl]-5-fluoro-quinoline-7-carbonitrile], the IC50 amounted to 454 nM at PRMT5/MEP50 complex and 2670 nM in test [1].
On to `CCOc1cc(-c2cnn(C)c2-c2c(F)c(Cl)cc(OC3CC3)c2C#N)cc2c(CN)n[nH]c(=O)c12` (single isomer, unassigned) [Example 16-78, (M)-2-[4-[4-(aminomethyl)-8-ethoxy-1-oxo-2H-phthalazin-6-yl]-2-methyl-pyrazol-3-yl]-4-chloro-6-(cyclopropoxy)-3-fluoro-benzonitrile], for which the IC50 on PRMT5/MEP50 complex came to 139 nM; in test [1], 17 nM.
Take `CCOc1cc(-c2cnn(C)c2-c2c(F)c(Cl)c3ccccc3c2C#N)cc2c(CN)n[nH]c(=O)c12` (single isomer, unassigned) [Example 16-80, (M)-2-[4-[4-(aminomethyl)-8-ethoxy-1-oxo-2H-phthalazin-6-yl]-2-methyl-pyrazol-3-yl]-4-chloro-3-fluoro-naphthalene-1-carbonitrile]: the results for the IC50 (on PRMT5/MEP50 complex; in test [1]) were 415 nM and 13 nM, respectively.
In the case of `Cc1sc(-c2c(-c3ccc4c(=O)[nH]nc(CN)c4c3)cnn2C)c(C#N)c1OC1CC1` [Example 4-276, 2-(4-(4-(aminomethyl)-1-oxo-1,2-dihydrophthalazin-6-yl)-1-methyl-1H-pyrazol-5-yl)-4-cyclopropoxy-5-methylthiophene-3-carbonitrile], the IC50 at PRMT5/MEP50 complex was 222 nM; in test [1] (Homo sapiens, HCT-116, 240 h) it was 198 nM.
Take `Cc1cc(OC2CC2)c(C#N)c(-c2c(-c3cc(Cl)c4c(=O)[nH]nc(CN)c4c3)cnn2C)c1F` (single isomer, unassigned) [Example 16-26, (M)-2-[4-[4-(aminomethyl)-8-chloro-1-oxo-2H-phthalazin-6-yl]-2-methyl-pyrazol-3-yl]-6-(cyclopropoxy)-3-fluoro-4-methyl-benzonitrile]: the results for the IC50 (at PRMT5/MEP50 complex; in test [1]) were 8.43 nM and 17 nM, respectively.
For `C[C@H]1C[C@@H]1Oc1ccc(F)c(-c2c(-c3ccc4c(=O)[nH]nc(CN)c4c3)cnn2C)c1C#N` (single isomer, unassigned) [Example 16-67] the same measures were 269 nM and 241 nM.
For `Cn1ncc(-c2ccc3c(=O)[nH]nc(CN)c3c2)c1-c1c(F)cc2ncc(Cl)cc2c1C#N` (single isomer, unassigned) [Example 16-32, (P)-6-[4-[4-(aminomethyl)-1-oxo-2H-phthalazin-6-yl]-2-methyl-pyrazol-3-yl]-3-chloro-7-fluoro-quinoline-5-carbonitrile] the same measures were 195 nM and 458 nM.
As to `Cc1cc(-c2c(-c3ccc4c(=O)[nH]nc(CN)c4c3)cnn2C)n2c1CCCC2=O` [Example 4-257, 4-(aminomethyl)-6-[1-methyl-5-(1-methyl-5-oxo-7,8-dihydro-6H-indolizin-3-yl)pyrazol-4-yl]-2H-phthalazin-1-one], the IC50 was found to be 547 nM at PRMT5/MEP50 complex and 618 nM in test [1] (Homo sapiens, HCT-116, 240 h).
For `Cc1c(F)c(-c2c(-c3cc(Cl)c4c(=O)[nH]nc(CN)c4c3)cnn2C)c(C#N)c2ncc(Cl)cc12` (atropisomer, axis not shown; (P)) [Example 16-97, (P)-7-(4-(4-(aminomethyl)-8-chloro-1-oxo-1,2-dihydrophthalazin-6-yl)-1-methyl-1H-pyrazol-5-yl)-3-chloro-6-fluoro-5-methylquinoline-8-carbonitrile] the same measures were more than 1000 nM and 1860 nM.
Regarding `Cn1ncc(-c2ccc3c(=O)[nH]nc(C4(N)COC4)c3c2)c1-c1sc2ccccc2c1C#N` [Example 9-9, 2-(4-(4-(3-aminooxetan-3-yl)-1-oxo-1,2-dihydrophthalazin-6-yl)-1-methyl-1H-pyrazol-5-yl)benzo[b]thiophene-3-carbonitrile], the IC50 in test [1] (Homo sapiens, HCT-116, 240 h) is 10000 nM.
Still for that read-out and setting: then `Cn1ncc(-c2ccc3c(=O)[nH]nc(CN)c3n2)c1-c1sc2ccccc2c1C#N` [Example 17-3, 2-[4-[8-(aminomethyl)-5-oxo-6H-pyrido[2,3-d]pyridazin-2-yl]-2-methyl-pyrazol-3-yl]benzothiophene-3-carbonitrile], with 278 nM.
Take `Cc1c(F)c(-c2c(-c3ccc4c(=O)[nH]nc(CN)c4c3)cnn2C)c(C#N)c2cc(Cl)cnc12` (atropisomer, axis not shown; (M)) [Example 16-34, (M)-6-[4-[4-(aminomethyl)-1-oxo-2H-phthalazin-6-yl]-2-methyl-pyrazol-3-yl]-3-chloro-7-fluoro-8-methyl-quinoline-5-carbonitrile]: the IC50 in test [1] turned out to be 20 nM.
With `Cn1ncc(-c2ccc3c(=O)[nH]nc(CN)c3c2)c1-c1c(C#N)cc2ncccc2c1Cl` (atropisomer, axis not shown; (P)) [Example 16-85, (P)-6-(4-(4-(aminomethyl)-1-oxo-1,2-dihydrophthalazin-6-yl)-1-methyl-1H-pyrazol-5-yl)-5-chloroquinoline-7-carbonitrile], in test [1], the IC50 came out at 4380 nM.
Regarding `Cn1ncc(-c2ccc3c(=O)[nH]nc(CN)c3c2)c1-c1cccc2c1COCC2(C)O` (atropisomer, axis not shown; (M)) [Example 16-103, (M)-4-(aminomethyl)-6-(5-(4-hydroxy-4-methylisochroman-8-yl)-1-methyl-1H-pyrazol-4-yl)phthalazin-1(2H)-one], the IC50 in test [1] (Homo sapiens, HCT-116, 240 h) was found to be 4000 nM.
For the compound `Cc1c(F)c(-c2c(-c3ccc4c(=O)[nH]nc(CN)c4c3)cnn2C)c(C#N)c2cc(Cl)cnc12` (atropisomer, axis not shown; (P)) [Example 16-33], the IC50 in test [1] came to 626 nM.
For `Cn1ncc(-c2ccc3c(=O)[nH]nc(CN)c3c2)c1-c1sc2cccnc2c1C#N` [Example 4-275, 2-(4-(4-(aminomethyl)-1-oxo-1,2-dihydrophthalazin-6-yl)-1-methyl-1H-pyrazol-5-yl)thieno[3,2-b]pyridine-3-carbonitrile], the IC50 in test [1] (Homo sapiens, HCT-116, 240 h) is 1880 nM.
For `Cn1ncc(-c2ccc3c(=O)[nH]nc(CN)c3c2)c1-c1c(C#N)cc2ncccc2c1Cl` (atropisomer, axis not shown; (M)) [Example 16-86, (M)-6-(4-(4-(aminomethyl)-1-oxo-1,2-dihydrophthalazin-6-yl)-1-methyl-1H-pyrazol-5-yl)-5-chloroquinoline-7-carbonitrile], the IC50 in test [1] came to 183 nM.
For the compound `Cn1ncc(-c2ccc3c(=O)[nH]nc(CN)c3c2)c1-c1c(F)cc2c(c1C#N)OCO2` (atropisomer, axis not shown; (P)) [Example 16-87, (P)-5-[4-[4-(aminomethyl)-1-oxo-2H-phthalazin-6-yl]-2-methyl-pyrazol-3-yl]-6-fluoro-1,3-benzodioxole-4-carbonitrile], the IC50 in test [1] (Homo sapiens, HCT-116, 240 h) came out at 158 nM.

The record behind these values is patent US20240208912A1 (Mirati Therapeutics, Inc., priority 2021, published 2024).
